Results published in the NIST ThermoML archive (doi:10.1021/je034261a).

Tests used:
[1] = for mass density: 101.33 kPa, Liquid; for Normal melting temperature / Glass transition temperature: DTA
[2] = molar heat capacity at constant pressure; details: 101.33 kPa, Liquid, Small sample (50 mg) DSC

CCCC[n+]1ccn(C)c1.O=S(=O)([N-]S(=O)(=O)C(F)(F)F)C(F)(F)F
Details	Normal melting temperature, Crystal [°C]	mass density, 296.45 K [kg/m3]	mass density, 304.15 K [kg/m3]	mass density, 313.45 K [kg/m3]	mass density, 323.35 K [kg/m3]	mass density, 333.75 K [kg/m3]	molar heat capacity at constant pressure, 298.15 K [J/K/mol]	molar heat capacity at constant pressure, 323.15 K [J/K/mol]
[1]	-2.0	1438.6	1433.6	1424.7	1414.2	1405.4	–	–
[2]	–	–	–	–	–	–	536.3	543.9

Details	Glass transition temperature [°C]
[1]	-86.0

CCC[n+]1ccn(C)c1C.O=S(=O)([N-]S(=O)(=O)C(F)(F)F)C(F)(F)F
Details	mass density, 295.15 K [kg/m3]	mass density, 304.25 K [kg/m3]	mass density, 313.65 K [kg/m3]	mass density, 324.35 K [kg/m3]	mass density, 335.15 K [kg/m3]	mass density, 344.65 K [kg/m3]	molar heat capacity at constant pressure, 298.15 K [J/K/mol]	molar heat capacity at constant pressure, 323.15 K [J/K/mol]
[1]	1456.7	1454.2	1446.4	1438.6	1427.5	1415.5	–	–
[2]	–	–	–	–	–	–	554.5	558.7

Details	Glass transition temperature [°C]
[1]	-82.0

CCn1cc[n+](C)c1.O=S(=O)([N-]S(=O)(=O)C(F)(F)F)C(F)(F)F
Details	Normal melting temperature, Metastable crystal [°C]	mass density, 296.15 K [kg/m3]	mass density, 303.95 K [kg/m3]	mass density, 313.85 K [kg/m3]	mass density, 323.45 K [kg/m3]	mass density, 333.65 K [kg/m3]	molar heat capacity at constant pressure, 298.15 K [J/K/mol]	molar heat capacity at constant pressure, 323.15 K [J/K/mol]
[1]	-17.0	1521.3	1515.9	1506.5	1496.7	1485.8	–	–
[2]	–	–	–	–	–	–	524.3	532.2

Details	Glass transition temperature [°C]
[1]	-92.0

CCn1cc[n+](C)c1C.O=S(=O)([N-]S(=O)(=O)C(F)(F)F)C(F)(F)F
Details	Normal melting temperature, Crystal [°C]	mass density, 296.15 K [kg/m3]	mass density, 303.75 K [kg/m3]	mass density, 313.55 K [kg/m3]	mass density, 323.35 K [kg/m3]	mass density, 333.65 K [kg/m3]	molar heat capacity at constant pressure, 309.15 K [J/K/mol]	molar heat capacity at constant pressure, 323.15 K [J/K/mol]
[1]	25.0	1491.3	1485.5	1476.9	1468	1457.2	–	–
[2]	–	–	–	–	–	–	492.7	498.8

CCCCn1cc[n+](C)c1C.F[P-](F)(F)(F)(F)F [1-butyl-2,3-dimethylimidazolium hexafluorophosphate]
Details	mass density, 295.65 K [kg/m3]	mass density, 313.15 K [kg/m3]	mass density, 323.15 K [kg/m3]	molar heat capacity at constant pressure, 298.15 K [J/K/mol]	molar heat capacity at constant pressure, 323.15 K [J/K/mol]
[1]	1241.6	1219	1205.5	–	–
[2]	–	–	–	433.6	449.1

Details	Glass transition temperature [°C]
[1]	-58.0

CCCCn1cc[n+](C)c1C.F[B-](F)(F)F [1-butyl-2,3-dimethylimidazolium tetrafluoroborate]
Details	Normal melting temperature, Crystal [°C]	mass density, 300.15 K [kg/m3]	mass density, 313.15 K [kg/m3]	mass density, 323.15 K [kg/m3]	molar heat capacity at constant pressure, 330.15 K [J/K/mol]	molar heat capacity at constant pressure, 372.15 K [J/K/mol]
[1]	37.0	1093.5	1076.2	1063.4	–	–
[2]	–	–	–	–	375.3	406.5

Details	Glass transition temperature [°C]
[1]	-68.0

CCCCn1cc[n+](C)c1.[Br-] [1-butyl-3-methylimidazolium bromide]
Details	Glass transition temperature [°C]
[1]	-50.0

[2]
Details	molar heat capacity at constant pressure [J/K/mol]
298.15 K	316.7
323.15 K	323.6

CCCCn1cc[n+](C)c1.[Cl-] [1-butyl-3-methylimidazolium chloride]
Details	Glass transition temperature [°C]
[1]	-69.0

[2]
Details	molar heat capacity at constant pressure [J/K/mol]
298.15 K	322.7
323.15 K	333.7

CCCCn1cc[n+](C)c1.N#CN=C=[N-] [1-butyl-3-methylimidazolium dicyanamide]
Details	Normal melting temperature, Crystal [°C]	mass density, 297.15 K [kg/m3]	mass density, 312.95 K [kg/m3]	mass density, 324.35 K [kg/m3]	mass density, 333.95 K [kg/m3]	mass density, 344.15 K [kg/m3]	mass density, 355.85 K [kg/m3]	molar heat capacity at constant pressure, 298.15 K [J/K/mol]	molar heat capacity at constant pressure, 323.15 K [J/K/mol]
[1]	-6.0	1058	1052.5	1046.6	1041.5	1034	1025.8	–	–
[2]	–	–	–	–	–	–	–	364.6	370

Details	Glass transition temperature [°C]
[1]	-90.0

CCCCn1cc[n+](C)c1.F[P-](F)(F)(F)(F)F [1-butyl-3-methylimidazolium hexafluorophosphate]
Details	Normal melting temperature, Crystal [°C]	molar heat capacity at constant pressure, 298.15 K [J/K/mol]	molar heat capacity at constant pressure, 323.15 K [J/K/mol]
[1]	11.0	–	–
[2]	–	397.6	405.1

Details	Glass transition temperature [°C]
[1]	-76.0

CCCCn1cc[n+](C)c1.F[B-](F)(F)F [1-butyl-3-methylimidazolium tetrafluoroborate]
Details	mass density, 295.45 K [kg/m3]	mass density, 303.85 K [kg/m3]	mass density, 313.55 K [kg/m3]	mass density, 328.25 K [kg/m3]	mass density, 343.85 K [kg/m3]	molar heat capacity at constant pressure, 298.15 K [J/K/mol]	molar heat capacity at constant pressure, 323.15 K [J/K/mol]
[1]	1204.8	1200.5	1194	1185	1173.7	–	–
[2]	–	–	–	–	–	351.5	358

Details	Glass transition temperature [°C]
[1]	-85.0

CCCCn1cc[n+](C)c1.O=S(=O)([O-])C(F)(F)F [1-butyl-3-methylimidazolium trifluoromethanesulfonate]
Details	Normal melting temperature, Crystal [°C]	mass density, 295.75 K [kg/m3]	mass density, 303.95 K [kg/m3]	mass density, 313.35 K [kg/m3]	mass density, 328.75 K [kg/m3]	mass density, 342.95 K [kg/m3]	molar heat capacity at constant pressure, 298.15 K [J/K/mol]	molar heat capacity at constant pressure, 323.15 K [J/K/mol]
[1]	13.0	1301.3	1296.5	1289.4	1279	1270	–	–
[2]	–	–	–	–	–	–	417.2	423.1
